# No end group written: not given here.
# Experiments:
# ovariectomized rats = assay: Efficacy testing of PTH analogs in ovariectomized rats; type: in vivo, Sprague Dawley rats; conditions: for proximal tibia trabecular bone mineral density (BMD) by pQCT: Week 20; for osteocalcin (bone formation marker): plasma
# Experimental: To compare their effects in bone, amidated fragments of human parathyroid hormone (PTH) were evaluated in the ovariectomized rat model. Aged female Sprague Dawley rats were subject to bilateral ovariectomy or sham surgery. The animals were held untreated for a period of 8 weeks to allow the development of osteopenia. At that point, the ovariectomized animals were segregated into groups, and each group received daily subcutaneous injection of either vehicle or one of the following PTH fragments: PTH[1-30]NH2, PTH[1-31]NH2, PTH[1-32]NH2, PTH[1-33]NH2, and PTH[1-34]NH2 at a dose of 9.7 nmol/Kg. Treatment continued for a period of twelve weeks. Primary measures of analyses were 1) bone mineral density (BMD) of the spine (L3-L6) as determined by Dual Energy X-Ray Absorptiometry (DXA), 2) trabecular BMD of the proximal tibia as determined by peripheral Quantitative Computed Tomography (pQCT)and 3) evaluation of cortical bone in the distal tibia by PQCT. Secondary measures included urinary deoxypyridinoline (bone resorption marker), plasma osteocalcin (bone formation marker), histomorphometry of trabecular bone from the fourth lumbar vertebra (L4) and cortical bone from the distal tibia, microcomputed tomography (μCT), and bone strength tests of the spine and femur. Bone strength analysis was done on the femoral midshaft and a lumbar vertebral body.
# In other experiments involving an ovariectomized rat model for osteoporosis, good efficacy is shown for the pharmaceutical agents of the invention. For example, the groups used in the study were: Sham, OVX (ovariectomized rats), OVX+PTH(1-30)NH2, OVX+PTH(1-31)NH2, OVX +PTH(1-32)NH2, OVX +PTH(1-33)NH2 and OVX +PTH(1-34)NH2.
# ovariectomized rat model = conditions: cited from earlier work
# adenylyl cyclase (AC) = conditions: cited from earlier work
# [1] = 9.7 nmol/Kg daily subcutaneous injection, twelve weeks
Substance,proximal tibia trabecular bone mineral density (BMD) by pQCT (ovariectomized rats),bone formation rate/bone surface (BFR/BS) on the periosteal surface (ovariectomized rats; compared to OVX),osteocalcin (bone formation marker) (ovariectomized rats),"cortical bone mass, bone formation on periosteal and endosteal bone surfaces (anabolic effect) (ovariectomized rats; rat, in vivo)",further results
"PTH[1-34]NH2: amidated fragment of human parathyroid hormone (PTH), 34 amino acids; hPTH-(1-34) sequence is SEQ ID NO:1",continue to increase,increased BFR/BS,significantly more increase than PTH amide fragments (1-31) and (1-32),increased cortical bone mass,–
PTH[1-32]NH2: C-terminal amidated human parathyroid hormone analog; hPTH-(1-32) sequence is SEQ ID NO:20 (SVSEIQLMHNLGKHLNSMERVEWLRKKLQDVH-NH2; listed as Homo sapiens),continue to increase,–,–,increased cortical bone mass,percent porosity of the intracortex (ovariectomized rats; compared to OVX): significantly increased when compared to OVX except hPTH(1-32) amide
Ser Val Ser Glu Ile Gln Leu Met His Asn Leu Gly Lys His Leu Asn Ser Met Glu Arg Val Glu Trp Leu Arg Lys Lys Leu Gln Asp Val-NH2 [PTH[1-31]NH2],continue to increase,increased BFR/BS,–,increased cortical bone mass,total area (ovariectomized rats; cortical bone): did not increase significantly except hPTH amide (1-31); restoration of bone loss (ovariectomized rat model): fully active; AC-stimulating activity (adenylyl cyclase (AC)): has only AC-stimulating activity
"PTH[1-30]NH2: amidated fragment of human parathyroid hormone (PTH), 30 amino acids (SVSEIQLMHNLGKHLNSMERVEWLRKKLQD-NH2; UniProt P01270 32-61, looked up, fragment)",–,–,significant increase in osteocalcin was observed for all PTH fragment treated groups except for PTH(1-30)NH2,anabolic effect is weak,"increase in lumbar BMD (L3-L6) by DXA relative to the vehicle-treated ovariectomized animals (ovariectomized rats; [1]): 13%; increase in maximal load, compression testing of a lumbar vertebral body, relative to vehicle-treated ovariectomized animals (ovariectomized rats; [1]): 53%; effect on bone mass and strength (conclusion) (ovariectomized rats; common dose): gain in bone mass that was of a smaller magnitude than the other fragments; bone formation rate/bone surface, trabecular bone (ovariectomized rats; histomorphometry): anabolic effects of all hPTH amide fragments except hPTH(1-30); trabecular area (trabecular bone mass) (ovariectomized rats; in contrast to OVX): increased trabecular bone mass in contrast to OVX except for the hPTH amide fragment (1-30); anabolic effectiveness overall (percent trabecular area, bone volume/total volume, trabecular thickness and number) (ovariectomized rats; micro-CT and histomorphometry): less anabolically effective than the other fragments; cortical analysis of the midshaft of the femur by pQCT (ovariectomized rats; rat, in vivo): all fragments to be effective except hPTH(1-30)NH2; indices of cortical bone strength derived from pQCT (ovariectomized rats; rat, in vivo): no effect"
PTH[1-33]NH2: C-terminal amidated human parathyroid hormone analog; hPTH-(1-33) sequence is SEQ ID NO:21 (SVSEIQLMHNLGKHLNSMERVEWLRKKLQDVHN-NH2; listed as Homo sapiens),did not continue to increase,increased BFR/BS,–,increased cortical bone mass,–
